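Cells were grown in 96-well plates and exposed to each compound for 48 hours at five concentrations; endpoints were interpolated linearly between bracketing concentrations, or set to the highest concentration if not reached. GI50 is the concentration that inhibits growth by half. The concentration for full growth arrest is given as TGI.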 Where only a bound is given, the exact number is not on record here.

Among the test systems are A549 NSCLC; CAKI-1 renal; MALME-3M melanoma; MCF7 breast; MOLT-4 leukemia; NCI-H23 lung; NCI-H460 lung; OVCAR-5 ovarian; SN12C renal; TK-10 renal.
Common to all, as to test: inhibition of tumour cell growth, NCI panel, 48 h

`COc1cccc(N2C(=O)C3c4[nH]c5ccccc5c4C4CCCC4C3C2=O)c1` (stereo unspecified): the TGI was more than 10 µM in the test on A549 NSCLC; more than 10 µM with CAKI-1 renal; 8.22 µM in the test on MALME-3M melanoma; more than 10 µM with MCF7 breast; more than 10 µM in the test with MOLT-4 leukemia; more than 10 µM with NCI-H23 lung. The TGI in the test on NCI-H460 lung is more than 10 µM; in the test with OVCAR-5 ovarian, more than 10 µM; in the test on SN12C renal it was 9.02 µM; in the test on TK-10 renal it was more than 10 µM.
For `O=C1c2cc3c(cc2[C@@H]2[C@H]1c1ccc([N+](=O)[O-])cc1C(=O)N2CCCBr)OCO3`, the GI50 with A549 NSCLC was less than 0.01 µM; in the test with CAKI-1 renal, less than 0.01 µM; in the test on MALME-3M melanoma, less than 0.0189 µM; with MCF7 breast, less than 0.01 µM; in the test with MOLT-4 leukemia it was less than 0.01 µM; in the test with NCI-H23 lung, less than 0.01 µM. Moreover, the GI50 is less than 0.0158 µM with OVCAR-5 ovarian, less than 0.01 µM with SN12C renal and 0.134 µM with TK-10 renal. The TGI was 0.0865 µM in the test with A549 NSCLC; less than 0.0335 µM in the test with CAKI-1 renal; 0.168 µM with MALME-3M melanoma; less than 0.01 µM with MCF7 breast; 0.0541 µM in the test on MOLT-4 leukemia; 0.0775 µM in the test on NCI-H23 lung. The TGI in the test on SN12C renal is less than 0.01 µM; in the test on TK-10 renal, 4.04 µM.
Take `O=C1NNC2(C(=O)N1)c1ccccc1-c1ccccc12`: the TGI with A549 NSCLC, with CAKI-1 renal, with MALME-3M melanoma, in the test with MCF7 breast, with MOLT-4 leukemia and with NCI-H23 lung was more than 10 µM each time. Also, the TGI with NCI-H460 lung, with SN12C renal and in the test with TK-10 renal was more than 10 µM in each case.
As for `COc1cc2nc(N3CCCC3)nc(NCc3ccccc3)c2cc1OC`, the GI50 in the test with A549 NSCLC is 4.1 µM; in the test on CAKI-1 renal, 1.57 µM; in the test on MALME-3M melanoma it was 1.84 µM; with MCF7 breast, 1.71 µM; with MOLT-4 leukemia it was 2.89 µM; in the test with NCI-H23 lung it was 11.2 µM. For the same compound, the GI50 in the test on NCI-H460 lung is 2.95 µM; with OVCAR-5 ovarian, 4.63 µM; in the test with SN12C renal, 8.09 µM; with TK-10 renal, 1.9 µM. Also, the TGI with A549 NSCLC is 16.3 µM; in the test with CAKI-1 renal it was 3.14 µM; in the test on MALME-3M melanoma, 3.34 µM; with MCF7 breast, 4.21 µM; in the test with MOLT-4 leukemia, 9.1 µM; in the test on NCI-H23 lung, 25.2 µM. The TGI with NCI-H460 lung came to 8.73 µM; in the test with OVCAR-5 ovarian, 16.8 µM; with SN12C renal, 21.7 µM; with TK-10 renal, 3.71 µM.
Consider `C=C(C(N)=O)c1ccc([N+](=O)[O-])o1`, for which the TGI with A549 NSCLC worked out at 40.3 µM; with CAKI-1 renal, 7.27 µM; in the test with MALME-3M melanoma it was 5.51 µM; with MCF7 breast, 19.8 µM; in the test with MOLT-4 leukemia it was 18.8 µM; in the test on NCI-H23 lung, 20.6 µM. Besides, the TGI in the test with NCI-H460 lung came to 59 µM; in the test with OVCAR-5 ovarian, 35.2 µM; in the test on SN12C renal, 22.4 µM; in the test on TK-10 renal it was 27.2 µM.
For the compound `Cc1ccccc1OCC(O)CN1CCN(c2ccc(Cl)cc2)CC1` (stereo unspecified), the GI50 in the test with A549 NSCLC was 30.2 µM; in the test on CAKI-1 renal, 12.5 µM; in the test on MALME-3M melanoma it was 15.2 µM; in the test on MCF7 breast it was 16.9 µM; in the test with MOLT-4 leukemia, 14.7 µM; with NCI-H23 lung, 15.8 µM. For the same compound, the GI50 in the test on NCI-H460 lung is 16.7 µM; in the test on OVCAR-5 ovarian it was 17.4 µM; in the test with SN12C renal, 16 µM. The TGI with A549 NSCLC came to 84 µM; in the test on CAKI-1 renal, 26.6 µM; with MALME-3M melanoma, 31.2 µM; in the test on MCF7 breast, 31.5 µM; in the test on MOLT-4 leukemia it was 57.5 µM; in the test with NCI-H23 lung, 34.5 µM. Further, the TGI in the test with NCI-H460 lung was found to be 34.1 µM; with OVCAR-5 ovarian, 34.5 µM; in the test on SN12C renal, 30.8 µM.
`CCOC(=O)CCC(NC(=O)OCc1ccccc1)C(=O)NC(CCC(=O)OCC)C(=O)NC(CCC(=O)OCC)C(=O)NC(CCC(=O)OCC)C(=O)NC(CCC(=O)OCC)C(=O)NC(CCC(=O)OCC)C(=O)NC(CCC(=O)OCC)C(=O)OCC` (stereo unspecified): the TGI with A549 NSCLC, with CAKI-1 renal, in the test on MALME-3M melanoma, with MCF7 breast, with MOLT-4 leukemia and in the test with NCI-H23 lung was more than 100 µM each time. Moreover, the TGI with NCI-H460 lung, in the test with OVCAR-5 ovarian, in the test on SN12C renal and in the test with TK-10 renal was more than 100 µM in each case.
For the compound `COc1ccc(CCN2CC=Cn3c2nc2ccccc2c3=O)cc1`, the GI50 with A549 NSCLC is 0.038 µM; in the test with CAKI-1 renal, 0.0576 µM; in the test with MCF7 breast it was 0.0307 µM; in the test on MOLT-4 leukemia it was 0.0523 µM; in the test with NCI-H23 lung, 0.0416 µM; with NCI-H460 lung, 0.0358 µM. For the same compound, the GI50 was 0.217 µM with OVCAR-5 ovarian, 0.116 µM in the test on SN12C renal and 40 µM with TK-10 renal. For the same compound, the TGI was more than 49.1 µM with A549 NSCLC; more than 100 µM with CAKI-1 renal; more than 43 µM in the test on MCF7 breast; more than 100 µM with MOLT-4 leukemia; more than 100 µM in the test with NCI-H23 lung; 14.4 µM with NCI-H460 lung. For the same compound, the TGI in the test with OVCAR-5 ovarian was more than 100 µM; with SN12C renal, more than 61.1 µM; with TK-10 renal, more than 100 µM.
For the compound `C/C(=N/NC(=S)N1CCCCC1)c1ccccc1O`, the TGI in the test with A549 NSCLC, in the test with CAKI-1 renal, in the test on MALME-3M melanoma, in the test on MCF7 breast, with MOLT-4 leukemia and with NCI-H23 lung was more than 31.6 µM in each case. Besides, the TGI with NCI-H460 lung, with OVCAR-5 ovarian, in the test on SN12C renal and in the test on TK-10 renal was more than 31.6 µM throughout.
`Cc1cc(NCCCN(C)C)c2ccc3c(ccc4c(NCCCN(C)C)cc(C)nc43)c2n1`: the GI50 with A549 NSCLC is 0.0643 µM; in the test on CAKI-1 renal, 0.217 µM; in the test with MALME-3M melanoma, 0.244 µM; with MCF7 breast it was 0.0635 µM; in the test on MOLT-4 leukemia, 0.27 µM; in the test with NCI-H23 lung, 0.23 µM. The GI50 was 0.171 µM in the test on NCI-H460 lung, 0.246 µM in the test with OVCAR-5 ovarian, 0.157 µM in the test with SN12C renal and 0.24 µM in the test on TK-10 renal. The TGI was found to be 0.411 µM with A549 NSCLC; 0.673 µM in the test with CAKI-1 renal; 0.894 µM with MALME-3M melanoma; 0.302 µM in the test on MCF7 breast; 0.673 µM in the test with NCI-H23 lung; 0.441 µM with NCI-H460 lung. The TGI was 0.909 µM in the test with OVCAR-5 ovarian, 0.553 µM in the test on SN12C renal and 0.573 µM in the test with TK-10 renal.

The record behind these values is PubChem BioAssay (NCI).
